Experimental data as given in ChEMBL document CHEMBL1150440, “Tryptophan-norleucine 1,5-disubstituted tetrazoles as cis peptide bond mimics: Investigation of the bioactive conformation of a potent and selective peptide for the cholecystokinin-B receptor” (Bioorg Med Chem Lett, 1993).
Starred links: 1 amine or outer side, 2 acyl side, 3 side chain; linkers in the order of their positions; H or OH if unused. Non-standard residues stand in square brackets, D forms with d. Residues, ends and D or L forms follow the SMILES beside them. X1 = CCCC1C[C@@H](C(=O)[*:2])N([*:1])C1; NMeNle = CCCC[C@H](NC)C(=O)O; Nle = CCCC[C@H](N)C(=O)O

Key:
[1] = target: T1, Gastrin/cholecystokinin type B receptor (Homo sapiens, UniProt P32239); assay: Compound was tested for its binding affinity towards Cholecystokinin type B receptor in cortical membranes (CNS); format: cell membranes
T1 sequence (P32239 whole entry): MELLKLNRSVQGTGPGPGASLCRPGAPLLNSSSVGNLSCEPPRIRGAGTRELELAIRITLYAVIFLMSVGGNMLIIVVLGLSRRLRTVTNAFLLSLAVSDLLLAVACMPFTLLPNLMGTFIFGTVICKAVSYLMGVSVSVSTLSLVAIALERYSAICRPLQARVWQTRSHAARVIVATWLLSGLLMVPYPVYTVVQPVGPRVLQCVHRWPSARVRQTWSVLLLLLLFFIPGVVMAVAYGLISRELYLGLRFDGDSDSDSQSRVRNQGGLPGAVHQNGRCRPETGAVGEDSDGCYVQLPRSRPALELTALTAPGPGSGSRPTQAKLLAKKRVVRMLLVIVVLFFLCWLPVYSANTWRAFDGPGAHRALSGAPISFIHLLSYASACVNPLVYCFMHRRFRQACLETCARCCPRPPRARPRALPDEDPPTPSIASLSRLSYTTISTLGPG

[2] = target: T2, Cholecystokinin receptor type A (Homo sapiens) (UniProt P32238); assay: Ratio of binding affinity of Cholecystokinin type A receptor […]
T2 sequence (whole entry): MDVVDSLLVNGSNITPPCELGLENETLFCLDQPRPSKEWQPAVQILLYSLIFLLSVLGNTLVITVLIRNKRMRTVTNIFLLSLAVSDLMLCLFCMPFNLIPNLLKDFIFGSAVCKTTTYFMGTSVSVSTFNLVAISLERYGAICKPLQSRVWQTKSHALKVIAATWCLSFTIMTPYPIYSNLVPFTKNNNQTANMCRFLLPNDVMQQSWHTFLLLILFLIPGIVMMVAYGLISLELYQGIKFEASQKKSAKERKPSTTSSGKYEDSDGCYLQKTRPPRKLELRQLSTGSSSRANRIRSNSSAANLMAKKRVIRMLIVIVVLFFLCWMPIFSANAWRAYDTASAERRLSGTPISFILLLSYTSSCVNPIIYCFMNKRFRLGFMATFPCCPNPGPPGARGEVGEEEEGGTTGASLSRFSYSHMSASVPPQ

[3] = target: T3, Cholecystokinin receptor type A (Homo sapiens, UniProt P32238); assay: Compound was tested for its binding affinity towards Cholecystokinin type A receptor in pancreatic membranes; format: cell membranes
T3 sequence (P32238 whole entry): T2 sequence (whole entry)

Row | SMILES | IC50 [1] [nM] | Ratio [2] | IC50 [3] [nM]
1 | CCCC[C@@H](C(=O)N[C@@H](CC(=O)OCc1ccccc1)[C@@H](Cc1ccccc1)C(N)=O)n1nnnc1[C@H](Cc1c[nH]c2ccccc12)NC(=O)CNC(=O)OC(C)(C)C (mixture of isomers) | 4250 | 0.09 | 364
2 | CCCC[C@@H](C(=O)N[C@@H](CC(=O)OCc1ccccc1)[C@@H](Cc1ccccc1)C(N)=O)n1nnnc1[C@H](Cc1c[nH]c2ccccc12)NC(=O)OC(C)(C)C (mixture of isomers) | 1880 | 0.02 | 36.7
3 | CCCC1C[C@@H](C(=O)N[C@@H](CC(=O)O)C(=O)N[C@@H](Cc2ccccc2)C(N)=O)N(C(=O)[C@H](Cc2c[nH]c3ccccc23)NC(=O)CN)C1 (stereo partly drawn) (H-GW[X1]DF-NH2) | 1.9 | 1420 | 2700
4 | CCCC[C@@H](C(=O)N[C@@H](CC(=O)O)[C@@H](Cc1ccccc1)C(N)=O)n1nnnc1[C@H](Cc1c[nH]c2ccccc12)NC(=O)CN | 4530 | > 1.9 | > 10000
5 | CCCC[C@H](NC(=O)[C@H](Cc1c[nH]c2ccccc12)NC(=O)CN)C(=O)N[C@@H](CC(=O)O)C(=O)N[C@@H](Cc1ccccc1)C(N)=O (H-GW[Nle]DF-NH2) | 169 | 12.9 | 2180
6 | CCCC[C@@H](C(=O)N[C@@H](CC(=O)O)C(=O)N[C@@H](Cc1ccccc1)C(N)=O)N(C)C(=O)[C@H](Cc1c[nH]c2ccccc12)NC(=O)CN (H-GW[NMeNle]DF-NH2) |  |  | > 10000
7 | CCCCC(C(=O)OCc1ccccc1)n1nnnc1C(Cc1cn(C(=O)OCc2ccccc2)c2ccccc12)NC(=O)OCc1ccccc1 (stereo not drawn) | > 10000 |  | > 10000
